Measurements: patent US11744898B2, “Multi-arm polymer conjugates of TLR agonist compounds and related immunotherapeutic treatment methods” (Nektar Therapeutics, priority 2017, dated 2023)

How the values were obtained:
CT26 tumor cells = test: Murine CT-26 colon tumor model, two flanks; 800 μg 4-arm-PEG20k-CM-N-R848 intra-/peritumorally day 0, RSLAIL-2 0.8 mg/kg i.v. days 0, 9, 18; assay type: in vivo, Balb/c mice
STAT5 phosphorylation = STAT5 phosphorylation in lymphocytes by flow cytometry after administration in mice; assay type: in vivo
From the text: Conventional approaches, such as those involving radiolabeling a compound, administering it in vivo, and determining its clearance, can be used to determine whether a compound proposed to be a long-acting IL-2Rβ biased agonist is “long-acting”. For the purposes herein, the long acting nature of an IL-2Rβ biased agonist is typically determined using flow cytometry to measure STAT5 phosphorylation in lymphocytes at various time points after administration of the agonist to be evaluated in mice. As a reference, the signal is lost by around 24 hours with IL-2, but is sustained for a period greater than that for a long-acting IL-2Rβ-biased agonist.

[1] = tested on: subcutaneous B16F10 mouse melanoma tumors; test: Immune cells in tumor microenvironment by flow cytometry, B16F10 melanoma model; assay type: in vivo, mice; details: day 7; single dose of RSLAIL-2 or 5 doses of aldesleukin

Row | Substance | Survival Proportions (CT26 tumor cells; day 0 after treatment start) [%] | Survival Proportions (CT26 tumor cells; day 12 after treatment start) [%] | Survival Proportions (CT26 tumor cells; day 16 after treatment start) [%] | Survival Proportions (CT26 tumor cells; day 19 after treatment start) [%] | Survival Proportions (CT26 tumor cells; day 21 after treatment start) [%] | Survival Proportions (CT26 tumor cells; day 47 after treatment start (end of experiment)) [%] | animals with a complete response (both treated and untreated side tumors eliminated) (CT26 tumor cells; end of experiment, day 47) [%] | animals with a partial response (one of the two tumors eradicated) (CT26 tumor cells; end of experiment, day 47) [%] | time by which STAT5 phosphorylation signal is lost (STAT5 phosphorylation) | ratio of CD8/Treg in the tumor [1]
1 | 4-arm-PEG20k-CM-N—R848 [Compound 1] | 100 | 80 | 70 | 40 | 30 | 30 | 20 | 10 | – | –
2 | aldesleukin: clinically available IL-2; recombinant IL-2 referred to as aldesleukin | – | – | – | – | – | – | – | – | around 24 hours | 18
